Like-named read-outs stand apart in the source and are kept apart here.
Assays:
Aurora A [1] = biological target: T1, Aurora A (Homo sapiens, UniProt O14965); assay: Aurora A enzymatic activity test, FAM-labeled peptide, Caliper; type: biochemical; conditions: FAM-labeled peptide substrate, read-out: Kinase-inhibiting activity IC50 Aurora A
T1 sequence (O14965 1-403): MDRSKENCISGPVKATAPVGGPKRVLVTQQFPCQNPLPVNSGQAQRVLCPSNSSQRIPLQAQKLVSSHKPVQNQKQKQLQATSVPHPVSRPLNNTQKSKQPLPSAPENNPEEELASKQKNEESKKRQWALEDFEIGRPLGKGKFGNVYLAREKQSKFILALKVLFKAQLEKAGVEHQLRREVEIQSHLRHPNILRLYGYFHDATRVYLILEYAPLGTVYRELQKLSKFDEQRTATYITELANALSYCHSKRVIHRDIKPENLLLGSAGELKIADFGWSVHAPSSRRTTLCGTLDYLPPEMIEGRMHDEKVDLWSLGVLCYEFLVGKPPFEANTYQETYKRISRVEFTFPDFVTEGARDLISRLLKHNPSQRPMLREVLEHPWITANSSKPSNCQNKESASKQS
Method: (§1) Test samples: Compounds in the present invention (the sequence numbers and structures thereof are shown in Table 1), dilution concentration: 0.03 μM-3 μM, a total of 10 concentration gradients.
(§2) Test method: enzymatic activity tests of Aurora kinase (including Aurora A and Aurora B) and VEGFR2 (KDR) were performed using a multi-function microplate reader.
(§3) a) 96-well plates, 10 dose groups, 3-fold serial dilutions, each well was added with DMSO, maximal concentration of 500 μM (50-fold compound).
(§4) b) 384-well plates, diluted with 1× kinase buffer (50 mM HEPES, pH 7.5; 0.0015% Brij-35; 2 mM DTT), each well containing 5× compound dissolved in 5 μL of 10% DMSO. Each well of the negative control contains 5 μL of 1× kinase buffer containing 10% DMSO.
(§5) Aurora A, Aurora B and KDR were dissolved in 1× kinase buffer and prepared as a 2.5× enzyme solution. After the compound in various concentrations was reacted with 2.5× enzyme solution at room temperature for 10 min, the FAM-labeled peptide substrate and ATP were added to initiate reaction. After incubation for 40 minutes, 25 μL of terminal solution (100 mM HEPES, pH 7.5; 0.015% Brij-35; 0.2% Coating Reagent #3; 50 mM EDTA) was added to stop the reaction, and the final data were read by Caliper.

Aurora B [2] = biological target: T2, Aurora B (Homo sapiens, UniProt Q96GD4); assay: Aurora B enzymatic activity test, FAM-labeled peptide, Caliper; type: biochemical; conditions: FAM-labeled peptide substrate, read-out: Kinase-inhibiting activity IC50 Aurora B
Method: as §1, §2, §3, §4, §5

KDR(VEGFR2) [3] = biological target: T3, KDR(VEGFR2) (Homo sapiens, UniProt P35968); assay: KDR enzymatic activity test, FAM-labeled peptide, Caliper; type: biochemical; conditions: FAM-labeled peptide substrate, read-out: Kinase-inhibiting activity IC50 KDR(VEGFR2)
Method: as §1, §2, §3, §4, §5

Aurora A [4] = biological target: T1, Aurora A; assay: Aurora A kinase activity test, [γ-33P]-ATP filter membrane; type: biochemical; conditions: 40 minutes at room temperature, read-out: Kinase-inhibiting activity IC50 Aurora A
Method: (§6) Test samples: compounds 1 to 4 in the present invention (the sequence numbers and structures thereof are shown in Table 1), dilution concentration: 0.03 μM-3 μM, a total of 10 concentration gradients.
as §2
(1) Test for Aurora a Kinase Activity:
Aurora A kinase protein and the compounds were sequentially added to the following reaction system: 8 mM MOPS pH 7.0, 0.2 mM EDTA, 200 μM LRRASLG (Kemptide), 10 mM magnesium acetate and [γ-^33P]-ATP (radioactive activity was approximately 500 cpm/pmol). Then the above reaction system was added with ATP to start the reaction, and incubated at room temperature for 40 minutes. Then the reaction was terminated by adding a 3% phosphoric acid solution. 10 μL was taken out from the reaction system, and then added dropwise to a P30 filtermat filter membrane, washed three times in 75 mM phosphoric acid solution for 5 minutes, and then washed once with methanol. After the filter membrane was dried, count was performed by a liquid crystal scintillation counter.

Aurora B [5] = biological target: T2, Aurora B; assay: Aurora B kinase activity test, [γ-33P]-ATP filter membrane; type: biochemical; conditions: 40 minutes at room temperature, read-out: Kinase-inhibiting activity IC50 Aurora B
Method: as §6, §2
(2) Test for Aurora B Kinase Activity:
Aurora B kinase protein and the compounds were sequentially added to the following reaction system: 8 mM MOPS pH 7.0, 0.2 mM EDTA, 30 μM […], 10 mM magnesium acetate and [γ-^33P]-ATP (radioactive activity was approximately 500 cpm/pmol). Then the above reaction system was added with ATP to start the reaction, and incubated at room temperature for 40 minutes. Then the reaction was terminated by adding a 3% phosphoric acid solution. 10 μL was taken out from the reaction system, and then added dropwise to a P30 filtermat filter membrane, washed three times in 75 mM phosphoric acid solution for 5 minutes, and then washed once with methanol. After the filter was dried, count was performed by a liquid crystal scintillation counter.

KDR(VEGFR2) [6] = biological target: T3, KDR(VEGFR2); assay: KDR kinase activity test, [γ-33P]-ATP filter membrane; type: biochemical; conditions: 40 minutes at room temperature, read-out: Kinase-inhibiting activity IC50 KDR (VEGFR2)
Method: as §6, §2
(3) Test for KDR Kinase Activity:
KDR kinase protein and the compounds were sequentially added to the following reaction system: 8 mM MOPS pH 7.0, 0.2 mM EDTA, 0.33 mg/mL myelin basic protein, 10 mM magnesium acetate and [γ-^33P]-ATP (radioactive activity was approximately 500 cpm/pmol). Then the above reaction system was added with ATP to start the reaction, and incubated at room temperature for 40 minutes. Then the reaction was terminated by adding a 3% phosphoric acid solution. 10 μL was taken out from the reaction system, and then added dropwise to a P30 filtermat filter membrane, washed three times in a 75 mM phosphoric acid solution for 5 minutes, and then washed once with methanol. After the filter was dried, count was performed by a liquid crystal scintillation counter.

A549 Lung cancer cells = assay: Cell proliferation, Cell Titer-Glo; type: cell-based; conditions: Homo sapiens, 72 hours, read-out: Cellular inhibitory activity IC50 A549
Method: (§7) Test method: The effect of compounds on cell proliferation of different cell lines was examined by Cell Titer-Glo method.
(§8) Each cell line was inoculated into a 96-well plate one day in advance, and after overnight incubation, drugs in different concentrations were added to a final concentration of 0-10000 nM, 3-5 folds dilution, for a total of 10 concentration points. After incubation for 72 hours, the mixture was added with Cell titer-Glo reagent equilibrated at room temperature, and shaken to incubation for 10 min, and then allowed to stand at room temperature for 2 min to stabilize the light signal. The multi-function microplate reader was used to read data from each well and analyze it.

[7] = system: BT-549 breast cancer cells; assay: Cell proliferation, Cell Titer-Glo; type: cell-based; conditions: Homo sapiens, 72 hours, read-out: Cellular inhibitory activity IC50 BT-549
Method: as §7, §8

[8] = system: D4475 breast cancer cells; assay: Cell proliferation, Cell Titer-Glo; type: cell-based; conditions: 72 hours, read-out: Cellular inhibitory activity IC50 D4475
Method: as §7, §8

[9] = system: MDA-MB-468 breast cancer cells; assay: Cell proliferation, Cell Titer-Glo; type: cell-based; conditions: Homo sapiens, 72 hours, read-out: Cellular inhibitory activity IC50 MDA-MB-468
Method: as §7, §8

[10] = system: human acute granulocytic leukemia Kasumi-1 cells xenograft; assay: In vivo pharmacodynamic study, subcutaneous xenograft tumor model; set-up: species or system CB17 SCID mice; conditions: for Tumor Weight: QD × 18, Kasumi-1 tumor-bearing mice; for Tumor Growth Inhibition rate (TGI): QD × 18, by tumor weight
Method: (§9) Test sample: crystal form I prepared in Example 17 (crystal form I of compound 29)
Animals, Cells, Reagents & Instruments: Kasumi-1 cells, derived from ATCC.
CB17 SCID mice, 6-8 weeks, female, available from Shanghai Lingchang Biotechnology Co., Ltd.
Kasumi-1 cells were cultured in vitro in a single layer, and culture conditions were as follows: RPMI1640 medium supplemented with 10% heat-inactivated fetal bovine serum and 1% penicillin-streptomycin double antibody, 37° C., and 5% CO2. Passage was achieved two to three times a week. When the cells were in the exponential growth phase, the cells were harvested, counted, and inoculated.
0.2 mL of cell suspension containing about 1×10^7 Kasumi-1 cells (cell suspended in 1:1 base RPMI 1640 medium and nutrient gel) was subcutaneously inoculated into the right back of female CB17 SCID mice. Grouping administration was started when the average tumor volume reached 100-150 mm^3. Grouping method: Animals were weighed prior to administration and tumor volume was measured. Grouping was performed according to the tumor volume, with 8 mice per group.
Health and death of the animals were monitored daily. Body weight was measured twice a week, and samples were collected after the last dose and the tumor weight was weighed.

[11] = PK evaluation in beagle dogs; type: in vivo
Method: as §9
(1) Administration to animals: All animals were fasted for more than 12 h before administration, and fed at 4 h after the administration. […] Beagle dogs were given intravenously 1 mg/kg of crystal form I of compound 29 (prescription: 10% DMA+20% (30% Solutol)+70% saline) in a single dose, and blood was collected at 0 h before administration and 0.083, 0.25, 0.50, 1.0, 2.0, 4.0, 6.0, 8.0, 12 and 24 h after administration. Beagle dogs were given orally 2 mg/kg of crystal form I of compound 29 (Prescription: 10% DMA+20% (30% Solutol)+70% saline) in a single dose, and blood was collected at 0 h before administration and at 0.25, 0.50, 1.0, 2.0, 4.0, 6.0, 8.0, 12, and 24 h after administration, and 200 μL blood was taken through a small saphenous vein, and placed in a dried EDTA-K2 test tube. (2) Preparation of plasma: The whole blood sample was separated by low-speed centrifugation (1800 g, 5 min, 4° C.) (the whole blood was collected and placed in an ice bath, and plasma separation should be completed within 30 min) to give plasma, and the separated plasma was stored in a refrigerator at […] for analysis.
The sample to be tested (−80° C.) was taken from the refrigerator, thawed naturally at room temperature and vortexed for 5 min; 20 μL of plasma sample was accurately aspirated into a 1.5 mL centrifuge tube; added with 200 μL of internal standard working solution at a concentration of 50 ng/mL, and mixed well; after vortexed for 5 min, the mixture was centrifuged for 5 min (12000 rpm); 50 μL of supernatant was accurately aspirated into 96-well plates pre-filled with 150 μL/well of water; vortexed for 5 min, LC-MS/MS determination was performed in an injection volume of 15 μL.
The concentration of test sample was output using Analyst 1.6.1 from AB SCIEX.

[12] = intravenously 1 mg/kg single dose

T3 sequence (P35968 20-1356): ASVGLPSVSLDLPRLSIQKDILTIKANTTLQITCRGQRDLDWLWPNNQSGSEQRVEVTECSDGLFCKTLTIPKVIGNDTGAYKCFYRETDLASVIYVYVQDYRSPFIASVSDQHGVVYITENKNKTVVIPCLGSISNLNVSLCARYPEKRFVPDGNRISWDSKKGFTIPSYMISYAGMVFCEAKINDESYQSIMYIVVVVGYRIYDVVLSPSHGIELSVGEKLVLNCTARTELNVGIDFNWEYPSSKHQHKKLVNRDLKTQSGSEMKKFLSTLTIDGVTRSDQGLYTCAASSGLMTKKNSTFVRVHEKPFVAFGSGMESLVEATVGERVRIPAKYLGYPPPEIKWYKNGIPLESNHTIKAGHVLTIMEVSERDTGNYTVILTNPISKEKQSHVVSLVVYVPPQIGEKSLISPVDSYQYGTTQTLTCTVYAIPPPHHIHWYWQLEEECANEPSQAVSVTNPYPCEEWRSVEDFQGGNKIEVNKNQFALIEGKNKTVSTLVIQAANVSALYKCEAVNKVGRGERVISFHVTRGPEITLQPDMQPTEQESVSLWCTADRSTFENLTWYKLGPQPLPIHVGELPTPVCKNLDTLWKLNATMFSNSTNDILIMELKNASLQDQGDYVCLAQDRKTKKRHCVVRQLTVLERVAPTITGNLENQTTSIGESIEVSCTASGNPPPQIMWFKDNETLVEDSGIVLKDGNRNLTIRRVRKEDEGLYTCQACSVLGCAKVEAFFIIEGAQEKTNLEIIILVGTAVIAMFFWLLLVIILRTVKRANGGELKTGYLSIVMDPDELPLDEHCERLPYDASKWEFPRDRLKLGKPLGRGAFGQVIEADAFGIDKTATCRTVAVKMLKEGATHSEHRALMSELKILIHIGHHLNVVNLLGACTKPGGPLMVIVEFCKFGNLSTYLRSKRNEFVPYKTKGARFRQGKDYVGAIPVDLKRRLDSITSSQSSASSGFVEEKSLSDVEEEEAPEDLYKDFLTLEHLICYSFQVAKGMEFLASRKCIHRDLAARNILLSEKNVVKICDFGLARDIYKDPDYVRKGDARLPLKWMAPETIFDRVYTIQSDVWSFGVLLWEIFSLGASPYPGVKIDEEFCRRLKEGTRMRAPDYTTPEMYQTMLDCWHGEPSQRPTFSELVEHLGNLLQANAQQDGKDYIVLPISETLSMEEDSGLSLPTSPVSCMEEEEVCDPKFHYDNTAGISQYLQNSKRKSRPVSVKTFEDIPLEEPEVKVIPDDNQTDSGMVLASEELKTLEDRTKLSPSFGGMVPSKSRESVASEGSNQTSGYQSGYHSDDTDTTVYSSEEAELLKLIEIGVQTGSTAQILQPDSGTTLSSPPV
T2 sequence (Q96GD4 whole entry): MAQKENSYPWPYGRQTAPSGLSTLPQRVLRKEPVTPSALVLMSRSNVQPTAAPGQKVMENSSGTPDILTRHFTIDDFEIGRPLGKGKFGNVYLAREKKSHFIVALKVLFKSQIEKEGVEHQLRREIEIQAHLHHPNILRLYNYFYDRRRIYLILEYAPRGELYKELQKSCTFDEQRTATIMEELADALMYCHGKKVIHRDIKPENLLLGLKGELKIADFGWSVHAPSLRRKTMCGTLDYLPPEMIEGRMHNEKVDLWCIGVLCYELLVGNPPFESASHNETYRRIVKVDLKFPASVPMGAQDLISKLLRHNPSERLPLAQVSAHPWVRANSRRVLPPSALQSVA

SMILES | IC50 (Aurora A [1]) [nM] | IC50 (Aurora B [2]) [nM] | IC50 (KDR(VEGFR2) [3]) [nM] | further results
Cc1[nH]nc2c1N=C(c1ccccc1Cl)c1cnc(N3CCO[C@H](C)C3)cc1N2 (stereo in doubt) [Compound 40] | 2.7 | 11 | 2.9 | 
Cc1[nH]nc2c1N=C(c1ccccc1Cl)c1cnc(S(C)(=O)=O)cc1N2 [Compound 1] |  |  |  | IC50 (Aurora A [4]): 12 nM; IC50 (Aurora B [5]): 30 nM; IC50 (KDR(VEGFR2) [6]): 1660 nM
Cc1[nH]nc2c1N=C(c1ccccc1Cl)c1cnc(C3CC3)cc1N2 [Compound 2] |  |  |  | IC50 (Aurora A [4]): < 3 nM; IC50 (Aurora B [5]): 4 nM; IC50 (KDR(VEGFR2) [6]): 593 nM
Cc1[nH]nc2c1N=C(c1ccccc1Cl)c1cnc(N3CCNCC3)cc1N2 [Compound 37] | 5.4 | 8.8 | 1.7 | 
Cc1[nH]nc2c1N=C(c1ccccc1Cl)c1cnc(CN3CCNCC3)cc1N2 [Compound 38] | 18 | 16 | 4.2 | 
Cc1[nH]nc2c1N=C(c1ccccc1Cl)c1cnc(N3C[C@@H](C)N(C)[C@@H](C)C3)cc1N2 [Compound 41] | 15 | 24 | 7.9 | 
Cc1[nH]nc2c1N=C(c1ccccc1Cl)c1cnc(N3CCN(C)[C@H](C)C3)cc1N2 [Compound 42] | 3 | 1.7 | 9.7 | 
Cc1[nH]nc2c1N=C(c1ccccc1Cl)c1cnc(N3CCN(C)C(=O)C3)cc1N2 [Compound 43] | 2.1 | 5.8 | 1.8 | 
Cc1[nH]nc2c1N=C(c1ccccc1Cl)c1cnc(N3CCN(C4CC4)CC3)cc1N2 [Compound 44] | 0.82 | 6.8 | 1.5 | IC50 (A549 Lung cancer cells): 358 nM; IC50 [7]: 249 nM; IC50 [8]: 101 nM; IC50 [9]: 984 nM
Cc1[nH]nc2c1N=C(c1ccccc1Cl)c1cnc(N3CC4CC3CO4)cc1N2 (stereo not drawn) [Compound 45] | 1 | 4.7 | 0.3 | IC50 (A549 Lung cancer cells): 507 nM; IC50 [7]: 186 nM; IC50 [8]: 171 nM; IC50 [9]: 491 nM
Cc1[nH]nc2c1N=C(c1ccccc1Cl)c1cnc(N3CC4COCC4C3)cc1N2 (stereo not drawn) [Compound 46] | 0.41 | 3.1 | 0.53 | IC50 (A549 Lung cancer cells): 211 nM; IC50 [7]: 83 nM; IC50 [8]: 48 nM; IC50 [9]: 319 nM
Cc1[nH]nc2c1N=C(c1ccccc1Cl)c1cnc(N3CC4(COC4)C3)cc1N2 [Compound 48] | 1.4 | 5.2 | 1.8 | 
Cc1[nH]nc2c1N=C(c1ccccc1Cl)c1cnc(N3CCOCC3)cc1N2 [Crystal form I of compound 29, 4-(5-(2-chlorophenyl)-3-methyl-2,10-dihydropyrazolo[4,3-b]pyrido[4,3-e][1,4]diazepin-8-yl) morpholine] |  |  |  | Tumor Weight ([10]; 5 mg/kg po): 0.435 ± 0.091 g; Tumor Growth Inhibition rate (TGI) ([10]; 5 mg/kg po): 69.58%; Tumor Weight ([10]; 15 mg/kg po): 0.100 ± 0.014 g; Tumor Growth Inhibition rate (TGI) ([10]; 15 mg/kg po): 92.98%; inhibitory effect on the Kasumi-1 cell xenograft model ([10]; result in words): significant inhibitory effect; AUC(0-inf) ([11]; dog, plasma, iv, intravenously 1 mg/kg single dose, read-out: AUCinf iv): 4650 ng·h/mL; Tmax ([11]; dog, plasma, po, orally 2 mg/kg single dose): 2 h; AUC(0-inf) ([11]; dog, plasma, po, orally 2 mg/kg single dose, read-out: AUCinf po): 8600 ng·h/mL; Cl_obs iv [11, 12]: 3.67 mL/min/kg; Vz_obs iv [11, 12]: 2.35 L/kg; tz1/2 iv [11, 12]: 7.64 h; tZl1/2po ([11]; orally 2 mg/kg single dose): 6.87 h

From US11718620B2, “Method for treating a cancer mediated by abnormality of multi-kinases” (TransThera Sciences (Nanjing), Inc., priority 2016, dated 2023)
